In US20260137701A1, “CHOLESTENOIC ACID (CA) AND A SULFATED DERIVATIVE THEREOF, 3[BETA]-SULFATE-5-CHOLESTENOIC ACID (CA3S), AS ENDOGENOUS EPIGENETIC REGULATORS” (priority 2022, published 2026):

Test system: HepG-2 cells
Experiment: mRNA sequencing, differential expression genes
Assay type: cell-based, human
Protocol: After culturing HepG-2 cells in DMEM medium with HG for 72 hours followed by treating with 20 μM CA for 0, 3, 6, 12, and 24 hours, genomic DNA from 5×10^7 cells were extracted using QIAamp® DNA Mini Kit (QIAGEN, Hilden, Germany). Each sample, 6 μg, was sent to CD Genomics Co., Ltd (New York, USA) for analysis of WGBS. Total RNA was isolated using the Promega SV total RNA isolation system (Madison, WI, USA) with DNase treatment. Each sample, 2 μg, were sent to CD Genomics Co., Ltd (New York, USA) for analysis of RNA sequencing. The same samples, 2 μg, was used for the first-strand cDNA synthesis as recommended by the manufacturer (Invitrogen, Carlsbad, CA). RT-qPCR was performed using SYBR Green as the indicator on ABI 7500 Fast Real-Time PCR System (Applied Biosystems, Foster City, CA). Amplifications of j-actin or GAPDH were used as internal controls. Relative messenger RNA (mRNA) expression was quantified with the comparative cycle threshold (Ct) method using a sutiable primer set and was expressed as 2-ΔΔCt as described previously.
Total RNA was extracted and purified from HepG-2 cells using SV total RNA isolation system (Promega, Madison, WI). Messenger RNA was purified from total RNA using poly-T oligo-attached magnetic beads. After fragmentation, the first strand cDNA was synthesized using random hexamer primers, followed by the second strand cDNA synthesis using either dUTP for directional library or dTTP for non-directional library. The library was checked with Qubit and real-time PCR for quantification and bioanalyzer for size distribution detection. Quantified libraries will be pooled and sequenced on Illumina® platforms, according to effective library concentration and data amount. Raw data (raw reads) of fastq format were first processed through in-house perl scripts. In this step, clean data (clean reads) were obtained by removing reads containing adapter, reads containing ploy-N and low-quality reads from raw data. At the same time, Q20, Q30 and GC content of the clean data were calculated. All the downstream analyses were based on clean data with high quality. The clean data were aligned to reference genome (GRCh37) using Hisat2 v2.0.5 software. Differential expression genes (DEGs) were performed using the DESeq2 R package (1.20.0). DAVID software (website located at david.ncifcrf.gov/) was used to test the statistical enrichment of DMR related genes in the GO and KEGG pathways.

For `CC(CCC[C@@H](C)[C@H]1CC[C@H]2[C@@H]3CC=C4C[C@@H](O)CC[C@]4(C)[C@H]3CC[C@]12C)C(=O)O` (stereo partly drawn) [CA, 3β-hydroxy-5-cholestenoic acid], the “Fold Change NEU4 (down regulated gene)” value (20 μM CA, 6 hours) was −1.99 fold, the “Fold Change NOP9 (down regulated gene)” value (20 μM CA, 6 hours) was −2.89 fold and the “Fold Change NPIPA2 (up regulated gene)” value (20 μM CA, 6 hours) was 1.32 fold. For the same compound, the “Fold Change NUP160 (down regulated gene)” value (20 μM CA, 6 hours) was −1.36 fold, the “Fold Change PAK1 (down regulated gene)” value (20 μM CA, 6 hours) was −1.14 fold and the “Fold Change PAK1IP1 (down regulated gene)” value (20 μM CA, 6 hours) was −3.71 fold. For the same compound, the “Fold Change PALLD (up regulated gene)” value (20 μM CA, 6 hours) was 1.02 fold, the “Fold Change PCSK9 (down regulated gene)” value (20 μM CA, 6 hours) was −1.08 fold and the “Fold Change PFKFB4 (down regulated gene)” value (20 μM CA, 6 hours) was −1.30 fold. The “Fold Change PHF1 (up regulated gene)” value (20 μM CA, 6 hours) was 1.42 fold, the “Fold Change PNPLA3 (down regulated gene)” value (20 μM CA, 6 hours) was −1.42 fold and the “Fold Change POLR3E (down regulated gene)” value (20 μM CA, 6 hours) was −1.12 fold. For the same compound, the “Fold Change PRPF31 (up regulated gene)” value (20 μM CA, 6 hours) was 1.38 fold, the “Fold Change PRSS8 (down regulated gene)” value (20 μM CA, 6 hours) was −1.46 fold and the “Fold Change PSMB3 (down regulated gene)” value (20 μM CA, 6 hours) was −4.67 fold. For the same compound, the “Fold Change PSME2 (up regulated gene)” value (20 μM CA, 6 hours) was 2.33 fold, the “Fold Change PTEN (down regulated gene)” value (20 μM CA, 6 hours) was −1.64 fold and the “Fold Change PTGDR2 (up regulated gene)” value (20 μM CA, 6 hours) was 1.58 fold. The “Fold Change PUF60 (down regulated gene)” value (20 μM CA, 6 hours) was −2.01 fold, the “Fold Change RBFOX2 (down regulated gene)” value (20 μM CA, 6 hours) was −1.14 fold and the “Fold Change RCBTB2 (up regulated gene)” value (20 μM CA, 6 hours) was 1.18 fold. For the same compound, the “Fold Change RDH11 (down regulated gene)” value (20 μM CA, 6 hours) was −1.06 fold, the “Fold Change RN7SK (down regulated gene)” value (20 μM CA, 6 hours) was −1.58 fold and the “Fold Change RNF187 (up regulated gene)” value (20 μM CA, 6 hours) was 1.25 fold. The “Fold Change RPS9 (down regulated gene)” value (20 μM CA, 6 hours) was −1.14 fold, the “Fold Change RPS14P1 (up regulated gene)” value (20 μM CA, 6 hours) was 1.50 fold and the “Fold Change RPS17 (up regulated gene)” value (20 μM CA, 6 hours) was 3.79 fold. The “Fold Change RRN3 (down regulated gene)” value (20 μM CA, 6 hours) was −1.05 fold, the “Fold Change RUSC1-AS1 (down regulated gene)” value (20 μM CA, 6 hours) was −1.37 fold and the “Fold Change SBNO2 (up regulated gene)” value (20 μM CA, 6 hours) was 1.13 fold. The “Fold Change SERTAD1 (up regulated gene)” value (20 μM CA, 6 hours) was 1.06 fold, the “Fold Change SGK1 (up regulated gene)” value (20 μM CA, 6 hours) was 1.03 fold and the “Fold Change SLC39A7 (up regulated gene)” value (20 μM CA, 6 hours) was 2.59 fold. The “Fold Change SLC39A10 (down regulated gene)” value (20 μM CA, 6 hours) was −1.10 fold, the “Fold Change SNHG32 (down regulated gene)” value (20 μM CA, 6 hours) was −1.62 fold and the “Fold Change SPC25 (down regulated gene)” value (20 μM CA, 6 hours) was −1.51 fold. The “Fold Change SPSB2 (up regulated gene)” value (20 μM CA, 6 hours) was 1.18 fold, the “Fold Change SQLE (down regulated gene)” value (20 μM CA, 6 hours) was −1.73 fold and the “Fold Change SQSTM1 (down regulated gene)” value (20 μM CA, 6 hours) was −1.29 fold. For the same compound, the “Fold Change STARD4 (down regulated gene)” value (20 μM CA, 6 hours) was −1.26 fold, the “Fold Change STAT5A (up regulated gene)” value (20 μM CA, 6 hours) was 1.09 fold and the “Fold Change SYBU (up regulated gene)” value (20 μM CA, 6 hours) was 1.09 fold. The “Fold Change SYNPO (up regulated gene)” value (20 μM CA, 6 hours) was 1.14 fold, the “Fold Change TBCE (down regulated gene)” value (20 μM CA, 6 hours) was −1.67 fold and the “Fold Change TINF2 (down regulated gene)” value (20 μM CA, 6 hours) was −1.58 fold. The “Fold Change TJP1 (up regulated gene)” value (20 μM CA, 6 hours) was 1.02 fold, the “Fold Change TPM1-AS (up regulated gene)” value (20 μM CA, 6 hours) was 1.08 fold and the “Fold Change TRNH (down regulated gene)” value (20 μM CA, 6 hours) was −1.08 fold. The “Fold Change U2AF1 (up regulated gene)” value (20 μM CA, 6 hours) was 1.40 fold, the “Fold Change UGT2A3 (up regulated gene)” value (20 μM CA, 6 hours) was 1.83 fold and the “Fold Change VARS1 (up regulated gene)” value (20 μM CA, 6 hours) was 3.03 fold. For the same compound, the “Fold Change VPS11 (up regulated gene)” value (20 μM CA, 6 hours) was 1.96 fold, the “Fold Change YWHAE (down regulated gene)” value (20 μM CA, 6 hours) was −1.84 fold and the “number of DEGs regulated by CA, total” value (3 hours post treatment) was 109. The “number of DEGs, down-regulated” value (3 hours post treatment) was 50, the “number of DEGs, up-regulated” value (3 hours post treatment) was 59 and the “number of DEGs regulated by CA, total” value (6 hours) was 120. For the same compound, the “number of DEGs, down-regulated” value (6 hours) was 61, the “number of DEGs, up-regulated” value (6 hours) was 59 and the “number of DEGs regulated by CA, total” value (12 hours) was 164. For the same compound, the “number of DEGs, down-regulated” value (12 hours) was 80, the “number of DEGs, up-regulated” value (12 hours) was 84 and the “number of DEGs regulated by CA, total” value (24 hours) was 245. For the same compound, the “number of DEGs, down-regulated” value (24 hours) was 112 and the “number of DEGs, up-regulated” value (24 hours) was 133.
